Data from patent US20070004653A1, “Stable lyophilized anthracycline glycosides” (priority 2005, published 2007).

Test: Stability tests of lyophilized Idarubicin HCl, not stabilized and stabilized: pH, aglycone, bis-anhydro before and after lyophilization
Format: physicochemical
Method: Starting product was idarubicin hydrochloride, 1% w/v in water, containing amount of free HCl. No additional chemicals were added. Most of the solution was frozen and lyophilized. […]
To obtain idarubicin hydrochloride containing a trace amount of free HCl, idarubicin HCl was slurried in 20 volumes of a mixture of dichloromethane:methanol (90:10) containing a 1% molar amount of HCl with respect to the molar amount of idarubicin hydrochloride. The slurry was filtered off and washed with the same solvent mixture and then dried under vacuum at room temperature, until constant weight.
Starting product was idarubicin hydrochloride: 1% w/v in water, containing a trace amount of free HCl. 1.5% mol of both NH4OAc and AcOH with respect to idarubicin hydrochloride were added. Most of the solution was frozen and lyophilized. […]
Starting product was idarubicin hydrochloride, 1% w/v in water, containing a trace amount of free HCl. The solution was first decolorized with charcoal and 1.5% mol of both NH4OAc and AcOH with respect to idarubicin hydrochloride were added. Most of the solution was frozen and lyophilized. […]
Starting product was idarubicin hydrochloride, 1% w/v in water, containing a trace amount of free HCl. 0.65% mol of both NH4OAc and AcOH (0.1% and 0.08% w/w, respectively) with respect to idarubicin hydrochloride were added. Most of the solution was frozen and lyophilized. […]
Starting product was idarubicin hydrochloride, 1% w/v in water, containing a trace amount of free HCl. 0.1% w/w of NH4HCO3 and gaseous CO2 were added. Most of the solution was frozen and lyophilized. […]
Starting product was idarubicin hydrochloride, 1% w/v in water, containing a trace amount of free HCl. 0.1% w/w of NaHCO3 and gaseous CO2 were added. Most of the solution was frozen and lyophilized. […]
Starting product was idarubicin hydrochloride, 1% w/v in water, containing a trace amount of free HCl. 1.0% molar amount of AMBERLITE® IRA-67 (1.6 M) acetate and 0.8% molar amount of acetic acid with respect to idarubicin hydrochloride were added. The solution was filtered through a 0.4 micron membrane then it was frozen and lyophilized.

[1] = Example 16: solution to load into lyophilizer, no additional chemicals
[2] = Example 26: solution + 1.5% mol of both NH4OAc/AcOH to load into lyophilizer
[3] = Example 27: solution decolorized with charcoal + 1.5% mol of both NH4OAc/AcOH to load into lyophilizer
[4] = Example 28: solution + 0.65% mol of both NH4OAc/AcOH to load into lyophilizer
[5] = Example 29: lyophilized product obtained (NH4HCO3 + CO2)
[6] = Example 29: solution + 0.1% w/w of NH4HCO3 and gaseous CO2 to saturation, to load into lyophilizer
[7] = Example 30: lyophilized product obtained (NaHCO3 + CO2)
[8] = Example 30: solution + 0.1% w/w of NaHCO3 and gaseous CO2 to saturation, to load into lyophilizer
[9] = Example 31: solution + 1.0% mol of IRA-67 acetate and 0.8% mol of acetic acid, slurried 2 hr, filtered, loaded into lyophilizer

Structure (SMILES): CC(=O)[C@]1(O)Cc2c(O)c3c(c(O)c2[C@@H](O[C@H]2C[C@@H](N)[C@H](O)C(C)O2)C1)C(=O)c1ccccc1C3=O.Cl (some centres unmarked) [Idarubicin HCl, Idarubicin hydrochloride]
- % aglycone (Example 16: lyophilized product obtained, not stabilized): 0.29%
- % aglycone [1]: 0.14%
- pH of the solution as 1% w/v [1]: 5.36
- pH of the solution diluted to 0.5% w/v [1]: 6.32
- % aglycone (Example 26: lyophilized product obtained (1.5% mol of both NH4OAc/AcOH)): 0.16%
- % aglycone [2]: 0.14%
- pH of the solution as 1% w/v [2]: 5.14
- pH of the solution diluted to 0.5% w/v [2]: 5.26
- % aglycone (Example 27: lyophilized product obtained (charcoal + 1.5% mol of both NH4OAc/AcOH)): 0.04%
- % aglycone [3]: 0.03%
- pH of the solution as 1% w/v [3]: 5.85
- pH of the solution diluted to 0.5% w/v [3]: 6.05
- % aglycone (Example 28: lyophilized product obtained (0.65% mol of both NH4OAc/AcOH)): 0.19%
- % aglycone [4]: 0.15%
- pH of the solution diluted to 0.5% w/v [4]: 5.72
- % aglycone [5]: 0.16%
- % bis-anhydro [5]: 0.05%
- % aglycone [6]: 0.15%
- % bis-anhydro [6]: 0.06%
- pH of the solution diluted to 0.5% w/v [6]: 5.73
- % aglycone [7]: 0.16%
- % bis-anhydro [7]: 0.05%
- % aglycone [8]: 0.15%
- % bis-anhydro [8]: 0.05%
- pH of the solution diluted to 0.5% w/v [8]: 6.14
- % aglycone (Example 31: lyophilized product obtained (IRA-67 acetate + acetic acid)): 0.18%
- % aglycone [9]: 0.15%
- pH of the solution after dilution to 0.5% w/v [9]: 5.82
- % aglycone (starting solid idarubicin HCl containing a trace amount of HCl): 0.14%
